According to the supplement of paper PMC10307832:

Experiments:
Experiment in all cases: relative viability (nuclei count vs DMSO), 5 days (fraction); higher = more cells survive
Everolimus + Palbociclib = compound: CO[C@H]1C[C@@H]2CC[C@@H](C)[C@@](O)(O2)C(=O)C(=O)N2CCCC[C@H]2C(=O)O[C@H]([C@H](C)C[C@@H]2CC[C@@H](OCCO)[C@H](OC)C2)CC(=O)[C@H](C)/C=C(\C)[C@@H](O)[C@@H](OC)C(=O)[C@H](C)C[C@H](C)/C=C/C=C/C=C/1C [Everolimus] + CC(=O)c1c(C)c2cnc(Nc3ccc(N4CCNCC4)cn3)nc2n(C2CCCC2)c1=O [Palbociclib] (partner 0.5 µM)
Method in brief: (§1)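 Each reported value is a median over duplicate plates. It expresses relative viability: treated-well nuclei count divided by vehicle-well nuclei count. Lung cancer cell lines in 1536-well plates were dosed by pin tool a day after seeding, alone with one drug or with a fixed anchor-drug dose plus five library-drug doses (not always all listed) in √10 steps, and nuclei were counted after 5 days.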

Everolimus + Pictilisib = compound: CO[C@H]1C[C@@H]2CC[C@@H](C)[C@@](O)(O2)C(=O)C(=O)N2CCCC[C@H]2C(=O)O[C@H]([C@H](C)C[C@@H]2CC[C@@H](OCCO)[C@H](OC)C2)CC(=O)[C@H](C)/C=C(\C)[C@@H](O)[C@@H](OC)C(=O)[C@H](C)C[C@H](C)/C=C/C=C/C=C/1C [Everolimus] + CS(=O)(=O)N1CCN(Cc2cc3nc(-c4cccc5[nH]ncc45)nc(N4CCOCC4)c3s2)CC1 [Pictilisib] (partner 1 µM)
Method in brief: as §1

Everolimus + Luminespib = compound: CO[C@H]1C[C@@H]2CC[C@@H](C)[C@@](O)(O2)C(=O)C(=O)N2CCCC[C@H]2C(=O)O[C@H]([C@H](C)C[C@@H]2CC[C@@H](OCCO)[C@H](OC)C2)CC(=O)[C@H](C)/C=C(\C)[C@@H](O)[C@@H](OC)C(=O)[C@H](C)C[C@H](C)/C=C/C=C/C=C/1C [Everolimus] + CCNC(=O)c1noc(-c2cc(C(C)C)c(O)cc2O)c1-c1ccc(CN2CCOCC2)cc1 [Luminespib] (partner 0.01 µM)
Method in brief: as §1

Everolimus + OSI-027 = compound: CO[C@H]1C[C@@H]2CC[C@@H](C)[C@@](O)(O2)C(=O)C(=O)N2CCCC[C@H]2C(=O)O[C@H]([C@H](C)C[C@@H]2CC[C@@H](OCCO)[C@H](OC)C2)CC(=O)[C@H](C)/C=C(\C)[C@@H](O)[C@@H](OC)C(=O)[C@H](C)C[C@H](C)/C=C/C=C/C=C/1C [Everolimus] + COc1cccc2cc(-c3nc([C@H]4CC[C@H](C(=O)O)CC4)n4ncnc(N)c34)[nH]c12 [OSI-027] (partner 0.5 µM)
Method in brief: as §1

Row | Cell Line | relative viability (Everolimus + Palbociclib; first compound 0.01 µM) | relative viability (Everolimus + Palbociclib; first compound 0.03162 µM) | relative viability (Everolimus + Palbociclib; first compound 0.1 µM) | relative viability (Everolimus + Palbociclib; first compound 0.3162 µM) | relative viability (Everolimus + Palbociclib; first compound 1 µM) | relative viability (Everolimus + Pictilisib; first compound 0.01 µM) | relative viability (Everolimus + Pictilisib; first compound 0.03162 µM) | relative viability (Everolimus + Pictilisib; first compound 0.1 µM) | relative viability (Everolimus + Pictilisib; first compound 0.3162 µM) | relative viability (Everolimus + Pictilisib; first compound 1 µM) | relative viability (Everolimus + Luminespib; first compound 0.01 µM) | relative viability (Everolimus + Luminespib; first compound 0.03162 µM) | relative viability (Everolimus + Luminespib; first compound 0.1 µM) | relative viability (Everolimus + Luminespib; first compound 0.3162 µM) | relative viability (Everolimus + Luminespib; first compound 1 µM) | relative viability (Everolimus + OSI-027; first compound 0.01 µM) | relative viability (Everolimus + OSI-027; first compound 0.03162 µM) | relative viability (Everolimus + OSI-027; first compound 0.1 µM) | relative viability (Everolimus + OSI-027; first compound 0.3162 µM) | relative viability (Everolimus + OSI-027; first compound 1 µM)
1 | A-427 | 0.474 | 0.546 | 0.445 | 0.48 | 0.557 | 0.488 | 0.524 | 0.445 | 0.491 | 0.542 | 0.584 | 0.611 | 0.651 | 0.779 | 0.729 | 0.449 | 0.457 | 0.333 | 0.398 | 0.432
2 | COR-L 105 | 0.465 | 0.368 | 0.365 | 0.344 | 0.343 | 0.331 | 0.376 | 0.295 | 0.368 | 0.313 | 0.405 | 0.392 | 0.333 | 0.313 | 0.365 | 0.43 | 0.418 | 0.366 | 0.457 | 0.445
3 | NCI-H441 | 0.204 | 0.188 | 0.153 | 0.222 | 0.207 | 0.272 | 0.358 | 0.296 | 0.282 | 0.331 | 0.272 | 0.267 | 0.223 | 0.271 | 0.234 | 0.557 | 0.479 | 0.474 | 0.585 | 0.358
4 | NCI-H2126 | 0.384 | 0.314 | 0.325 | 0.338 | 0.345 | 0.373 | 0.34 | 0.359 | 0.392 | 0.409 | 0.532 | 0.457 | 0.42 | 0.564 | 0.381 | 0.528 | 0.431 | 0.414 | 0.475 | 0.426
5 | HCC-44 | 1.01 | 1 | 0.997 | 1.07 | 1.1 | 0.429 | 0.427 | 0.309 | 0.55 | 0.323 | 1.02 | 0.851 | 1.05 | 0.938 | 1.56 | 0.382 | 0.438 | 0.434 | 0.384 | 0.548
6 | NCI-H460 | 0.104 | 0.165 | 0.123 | 0.0825 | 0.0699 | 0.305 | 0.441 | 0.27 | 0.299 | 0.319 | 0.0198 | 0.0198 | 0.0232 | 0.0224 | 0.0194 | 0.389 | 0.503 | 0.304 | 0.314 | 0.333
7 | SK-LU-1 | 0.444 | 0.342 | 0.303 | 0.318 | 0.298 | 0.296 | 0.307 | 0.289 | 0.341 | 0.345 | 0.183 | 0.147 | 0.174 | 0.164 | 0.168 | 0.225 | 0.187 | 0.248 | 0.269 | 0.265
